This note sets out measurements from US10004732B2 (Novartis AG, priority 2014, dated 2018).

One data set addresses Vps34 (Homo sapiens, UniProt Q8NEB9). Description: Kinase Glo Luminescent Kinase Assay (Kglo), assay C. The settings on record: read-out: Assay C VPS34 IC50. It counts as biochemical. In general terms: In Kinase-Glo more light means more ATP remaining.
In data set [1] the target is T1, PI 3-kinase beta (Homo sapiens, UniProt P42338). Description: Cellular assay I1, p-Akt (S473) in Rat-1 cells, Surefire format. It counts as cell-based. The settings on record: non-asterisked data: version I1 (Surefire format), Rat-1 cells; read-out: Assay I PI3Kβ IC50.
Target sequence in this assay (P42338 whole entry): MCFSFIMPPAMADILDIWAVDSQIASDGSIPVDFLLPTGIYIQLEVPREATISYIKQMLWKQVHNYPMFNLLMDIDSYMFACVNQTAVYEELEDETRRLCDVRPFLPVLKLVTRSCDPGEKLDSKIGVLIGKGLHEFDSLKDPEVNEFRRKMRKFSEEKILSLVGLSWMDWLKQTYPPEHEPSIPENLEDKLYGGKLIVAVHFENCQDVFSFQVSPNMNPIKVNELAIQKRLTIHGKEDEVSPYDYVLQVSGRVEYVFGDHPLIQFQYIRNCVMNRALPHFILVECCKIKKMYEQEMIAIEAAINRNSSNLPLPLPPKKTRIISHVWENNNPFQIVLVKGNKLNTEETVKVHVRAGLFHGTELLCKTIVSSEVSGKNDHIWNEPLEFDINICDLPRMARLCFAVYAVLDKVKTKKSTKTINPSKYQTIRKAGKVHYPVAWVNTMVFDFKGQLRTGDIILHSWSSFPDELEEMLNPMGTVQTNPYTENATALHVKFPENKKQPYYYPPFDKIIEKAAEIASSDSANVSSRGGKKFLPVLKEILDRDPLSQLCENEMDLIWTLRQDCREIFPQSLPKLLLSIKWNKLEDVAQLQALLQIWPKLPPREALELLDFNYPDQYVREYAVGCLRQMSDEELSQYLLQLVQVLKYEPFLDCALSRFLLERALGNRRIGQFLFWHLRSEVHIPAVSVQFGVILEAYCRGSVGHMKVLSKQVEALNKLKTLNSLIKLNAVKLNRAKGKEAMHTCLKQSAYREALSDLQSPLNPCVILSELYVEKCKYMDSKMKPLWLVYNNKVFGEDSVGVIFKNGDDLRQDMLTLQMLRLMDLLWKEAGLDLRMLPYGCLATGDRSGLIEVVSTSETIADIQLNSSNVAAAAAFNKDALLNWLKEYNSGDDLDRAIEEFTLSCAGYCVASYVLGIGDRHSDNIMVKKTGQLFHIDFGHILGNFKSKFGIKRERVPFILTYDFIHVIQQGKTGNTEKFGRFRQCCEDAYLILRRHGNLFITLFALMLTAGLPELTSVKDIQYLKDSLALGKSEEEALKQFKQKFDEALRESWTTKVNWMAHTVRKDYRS
Target sequence in this assay (Q63787 whole entry partner): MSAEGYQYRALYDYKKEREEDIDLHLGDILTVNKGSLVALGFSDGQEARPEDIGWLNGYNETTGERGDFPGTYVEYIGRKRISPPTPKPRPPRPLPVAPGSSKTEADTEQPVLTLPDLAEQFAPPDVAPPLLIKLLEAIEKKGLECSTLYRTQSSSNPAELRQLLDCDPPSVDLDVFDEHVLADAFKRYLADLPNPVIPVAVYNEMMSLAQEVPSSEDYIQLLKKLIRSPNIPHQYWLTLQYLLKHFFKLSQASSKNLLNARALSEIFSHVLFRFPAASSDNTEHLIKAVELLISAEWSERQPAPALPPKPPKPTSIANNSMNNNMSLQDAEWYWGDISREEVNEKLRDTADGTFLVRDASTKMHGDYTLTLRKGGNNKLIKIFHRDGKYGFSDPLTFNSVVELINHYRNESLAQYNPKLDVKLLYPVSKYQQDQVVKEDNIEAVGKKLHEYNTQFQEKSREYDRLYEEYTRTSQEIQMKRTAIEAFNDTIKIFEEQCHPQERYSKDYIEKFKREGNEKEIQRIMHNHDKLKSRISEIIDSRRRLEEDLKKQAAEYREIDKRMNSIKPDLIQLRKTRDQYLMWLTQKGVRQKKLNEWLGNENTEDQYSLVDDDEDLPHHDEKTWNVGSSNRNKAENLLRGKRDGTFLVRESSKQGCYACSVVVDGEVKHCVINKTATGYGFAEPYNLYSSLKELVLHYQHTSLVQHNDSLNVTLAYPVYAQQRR
Data set [2] deals with T2, PI 3-kinase gamma (Homo sapiens, UniProt P48736). Description: Cellular U937 AKT assay K2 (HTRF). The settings on record: U937 cells, K2 format; read-out: Assay K2 PI3Kγ IC50. Type of data set: cell-based. Background: TR-FRET usually uses a lanthanide donor and a delayed reading to cut background.
Data set [3] addresses T2, PI 3-kinase gamma. Description: Cellular U937 AKT assay K1 (MSD). It counts as cell-based. The settings on record: U937 cells, K1 format; read-out: Assay K1 PI3Kγ IC50.
Data set [4] deals with T3, PI 3-kinase alpha (Homo sapiens, UniProt P42336). Description: Kinase Glo Luminescent Kinase Assay (Kglo), assay A. The settings on record: read-out: Assay A PI3Kα IC50. Type of data set: biochemical.
Target sequence in this assay (P42336 whole entry): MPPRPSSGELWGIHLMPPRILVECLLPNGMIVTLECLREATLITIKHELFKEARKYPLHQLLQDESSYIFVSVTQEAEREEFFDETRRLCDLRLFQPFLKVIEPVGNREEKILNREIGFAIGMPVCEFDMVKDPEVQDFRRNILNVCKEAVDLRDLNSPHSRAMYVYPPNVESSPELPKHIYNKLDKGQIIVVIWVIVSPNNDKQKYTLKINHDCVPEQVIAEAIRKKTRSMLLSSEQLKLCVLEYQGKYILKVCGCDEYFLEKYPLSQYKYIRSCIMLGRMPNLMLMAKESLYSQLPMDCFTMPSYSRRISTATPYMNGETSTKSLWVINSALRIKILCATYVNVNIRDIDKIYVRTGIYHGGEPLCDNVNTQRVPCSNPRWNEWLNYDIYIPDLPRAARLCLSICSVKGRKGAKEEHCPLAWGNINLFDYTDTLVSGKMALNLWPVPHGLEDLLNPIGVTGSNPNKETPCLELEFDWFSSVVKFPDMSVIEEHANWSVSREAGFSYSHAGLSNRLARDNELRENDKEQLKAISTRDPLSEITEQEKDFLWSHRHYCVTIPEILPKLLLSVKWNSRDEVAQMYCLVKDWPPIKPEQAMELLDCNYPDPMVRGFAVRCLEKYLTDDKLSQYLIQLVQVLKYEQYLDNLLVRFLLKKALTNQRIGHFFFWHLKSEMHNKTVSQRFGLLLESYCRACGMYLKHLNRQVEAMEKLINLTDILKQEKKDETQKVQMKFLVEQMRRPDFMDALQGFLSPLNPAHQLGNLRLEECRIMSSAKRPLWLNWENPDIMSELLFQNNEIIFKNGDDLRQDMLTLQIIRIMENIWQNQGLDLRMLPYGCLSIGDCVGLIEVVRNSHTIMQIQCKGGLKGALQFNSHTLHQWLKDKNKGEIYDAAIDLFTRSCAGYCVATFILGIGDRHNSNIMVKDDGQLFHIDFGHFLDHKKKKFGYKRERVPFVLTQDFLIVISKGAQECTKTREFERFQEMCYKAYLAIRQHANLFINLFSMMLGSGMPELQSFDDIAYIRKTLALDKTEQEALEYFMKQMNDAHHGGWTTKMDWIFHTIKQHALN
For data set [5], the target named is T1, PI 3-kinase beta. As to the kind of experiment: Kinase Glo Luminescent Kinase Assay (Kglo), assay B. It counts as biochemical. The conditions noted are these: read-out: Assay B PI3Kβ IC50.
Target sequence in this assay (P42338 whole entry): as the sequence (P42338 whole entry) above
Target sequence in this assay (P27986 461-568 partner): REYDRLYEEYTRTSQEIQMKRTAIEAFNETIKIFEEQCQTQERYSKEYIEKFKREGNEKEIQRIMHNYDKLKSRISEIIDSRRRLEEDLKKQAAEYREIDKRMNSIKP
A short description of data set [6]: Microsomal clearance assay (M). The settings on record: intrinsic clearance in rat liver microsomes.
Method: The experiments were performed in 96-well glass plates at 37° C. on an automated Tecan EVO platform. Test compounds at a concentration of 10 mM in pure DMSO were diluted 1:1000 in water to 10 μM. […] Reactions were initiated by the addition of 150 μL of a cofactor solution containing 2 mM NADPH.
Data set [7] addresses T4, PI 3-kinase delta (Homo sapiens, UniProt O00329). Description: Cellular assay J1, p-Akt (S473) in Rat-1 cells, Surefire format. Type of data set: cell-based. The conditions noted are these: non-asterisked data: version J1 (Surefire format), Rat-1 cells; read-out: Assay J PI3Kδ IC50.
Target sequence in this assay (O00329 whole entry): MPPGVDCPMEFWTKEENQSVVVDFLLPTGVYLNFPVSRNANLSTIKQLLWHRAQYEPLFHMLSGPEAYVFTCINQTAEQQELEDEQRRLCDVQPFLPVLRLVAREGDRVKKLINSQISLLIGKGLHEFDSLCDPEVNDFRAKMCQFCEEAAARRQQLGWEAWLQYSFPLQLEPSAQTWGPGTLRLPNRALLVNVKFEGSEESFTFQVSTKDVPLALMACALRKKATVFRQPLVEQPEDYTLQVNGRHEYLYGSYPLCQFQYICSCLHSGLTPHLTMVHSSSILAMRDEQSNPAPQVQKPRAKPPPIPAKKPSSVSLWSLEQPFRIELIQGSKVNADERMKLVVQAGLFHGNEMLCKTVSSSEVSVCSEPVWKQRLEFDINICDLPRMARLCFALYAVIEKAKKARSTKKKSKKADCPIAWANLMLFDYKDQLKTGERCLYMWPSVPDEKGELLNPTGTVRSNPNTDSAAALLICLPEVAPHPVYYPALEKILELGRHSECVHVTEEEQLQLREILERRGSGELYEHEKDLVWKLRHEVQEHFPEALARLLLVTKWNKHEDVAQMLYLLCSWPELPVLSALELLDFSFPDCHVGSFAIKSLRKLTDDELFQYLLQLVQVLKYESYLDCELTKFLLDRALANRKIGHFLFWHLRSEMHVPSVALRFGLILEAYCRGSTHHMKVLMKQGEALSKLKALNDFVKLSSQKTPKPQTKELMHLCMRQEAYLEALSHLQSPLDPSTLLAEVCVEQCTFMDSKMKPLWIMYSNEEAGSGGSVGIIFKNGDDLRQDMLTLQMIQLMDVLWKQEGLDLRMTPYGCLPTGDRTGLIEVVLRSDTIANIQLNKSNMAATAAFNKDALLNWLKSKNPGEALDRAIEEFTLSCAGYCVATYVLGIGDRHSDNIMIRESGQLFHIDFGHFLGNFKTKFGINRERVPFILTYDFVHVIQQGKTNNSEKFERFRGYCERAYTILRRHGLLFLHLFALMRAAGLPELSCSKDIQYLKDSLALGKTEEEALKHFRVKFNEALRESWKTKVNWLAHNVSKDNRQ
Target sequence in this assay (Q63787 whole entry partner): as the sequence (Q63787 whole entry partner) above
Another data set has as its target PI 4-kinase beta (Homo sapiens, UniProt Q9UBF8). Description: Kinase Glo Luminescent Kinase Assay (Kglo), assay D. It counts as biochemical. The conditions noted are these: read-out: Assay D PI4Kβ IC50.
For data set [8], the target named is T4, PI 3-kinase delta. As to the kind of experiment: TR-FRET Adapta assay, assay F. The conditions noted are these: read-out: Assay F PI3Kδ IC50.
Target sequence in this assay (O00329 whole entry): as the sequence (O00329 whole entry) above
Target sequence in this assay (P27986 461-568 partner): as the sequence (P27986 461-568 partner) above
The next data set addresses mTOR (Homo sapiens, UniProt P42345). Description: Lanthascreen kinase binding assay, assay G. The settings on record: read-out: Assay G mTOR IC50.
The target in data set [9] is T2, PI 3-kinase gamma. As to the kind of experiment: TR-FRET Adapta assay, assay E. It counts as biochemical. The conditions noted are these: read-out: Assay E PI3Kγ IC50.
The target of data set [10] is T3, PI 3-kinase alpha. Description: Cellular assay H1, p-Akt (S473) in Rat-1 cells, Surefire format. It counts as cell-based. The settings on record: non-asterisked data: version H1 (Surefire format), Rat-1 cells; read-out: Assay H PI3Kα IC50.
Target sequence in this assay (P42336 whole entry): as the sequence (P42336 whole entry) above
Target sequence in this assay (Q63787 whole entry partner): as the sequence (Q63787 whole entry partner) above
In data set [11] the test system is IL-8-induced neutrophil shape change in human whole blood. As to the kind of experiment: Whole blood neutrophil shape change assay (L). Type of data set: cell-based. The settings on record: Homo sapiens, Neutrophil, IL-8, human whole blood, read-out: Assay L WBSC IC50.

Method for mTOR: Lanthascreen™ Kinase Binding Assay for mTOR (G)
Binding of an inhibitor to the kinase competes for binding with the tracer, resulting in a loss of FRET.
50 nL of compound dilutions were dispensed onto white 384-well small volume polystyrene plate.

By IC50 is commonly meant the concentration at which inhibition is half-maximal. As for `Cc1ccc(S(=O)(=O)NCC2(C)COC2)cc1-c1cnc(N)c(-c2cnn(C)c2)n1` [Example 5, 3-[5-Amino-6-(1-methyl-1H-pyrazol-4-yl)-pyrazin-2-yl]-4-methyl-N-(3-methyl-oxetan-3-ylmethyl)-benzenesulfonamide], the IC50 was over 10000 nM on Vps34; over 10000 nM at PI 3-kinase beta [1]; 261 nM on PI 3-kinase gamma [2]; 78 nM at PI 3-kinase gamma [3]; 680 nM at PI 3-kinase alpha [4]; 690 nM on PI 3-kinase beta [5]. The IC50 is 3450 nM on PI 3-kinase delta [7]; 6700 nM at PI 4-kinase beta; 1000 nM on PI 3-kinase delta [8]; over 10000 nM on mTOR; 12 nM at PI 3-kinase gamma [9]; over 10000 nM at PI 3-kinase alpha [10]. The concentration for half-maximal inhibition (IC50) in [11] came to 696 nM. Besides, the “Assay M RLM CI(int)” value in [6] came out at 26 µL/min/mg.

As to `Cc1ccc(S(=O)(=O)NCC2(C)COC2)cc1-c1cnc(N)c(-n2cncn2)n1` [Example 29, 3-(5-Amino-6-[1,2,4]triazol-1-yl-pyrazin-2-yl)-4-methyl-N-(3-methyl-oxetan-3-ylmethyl)-benzenesulfonamide], the concentration for half-maximal inhibition (IC50) on Vps34 is over 9100 nM; on PI 3-kinase beta [1] it was 8080 nM; at PI 3-kinase gamma [2], 314 nM; on PI 3-kinase gamma [3], 206 nM; at PI 3-kinase alpha [4], 1300 nM; at PI 3-kinase beta [5] it was 6800 nM. Further, the IC50 is 6610 nM at PI 3-kinase delta [7]; 5200 nM on PI 4-kinase beta; 910 nM on PI 3-kinase delta [8]; over 9100 nM on mTOR; 9 nM on PI 3-kinase gamma [9]; 4630 nM on PI 3-kinase alpha [10]. In addition, the half-inhibitory concentration (IC50) in data set [11] was 956 nM. The “Assay M RLM CI(int)” value in [6] came to 62 µL/min/mg.

With `Cc1cc(F)c(S(=O)(=O)NCC(C)(C)O)cc1-c1cnc(N)c(-n2cncn2)n1` [Example 122, 5-(5-Amino-6-(1H-1,2,4-triazol-1-yl)pyrazin-2-yl)-2-fluoro-N-(2-hydroxy-2-methylpropyl)-4-methylbenzenesulfonamide], the concentration for half-maximal inhibition (IC50) at Vps34 was over 10000 nM; on PI 3-kinase beta [1], 1490 nM; on PI 3-kinase gamma [2], 296 nM; on PI 3-kinase gamma [3] it was 151 nM; at PI 3-kinase alpha [4], 490 nM; at PI 3-kinase beta [5] it was 2200 nM. Besides, the IC50 at PI 3-kinase delta [7] came out at 1190 nM; at PI 4-kinase beta it was 1900 nM; at PI 3-kinase delta [8] it was 1600 nM; on mTOR it was 6600 nM; on PI 3-kinase gamma [9] it was 85 nM; on PI 3-kinase alpha [10], 2280 nM. The IC50 in data set [11] was determined as 988 nM. For the same molecule, the “Assay M RLM CI(int)” value in data set [6] worked out at 26 µL/min/mg.

Turning to `Cc1ccc(S(=O)(=O)NC2CC2)cc1-c1cnc(N)c(-n2cncn2)n1` [Example 127.53], the 50% inhibitory concentration (IC50) was over 10000 nM on Vps34; over 3000 nM at PI 3-kinase beta [1]; 198 nM on PI 3-kinase gamma [2]; 172 nM on PI 3-kinase gamma [3]; 430 nM on PI 3-kinase alpha [4]; 1400 nM on PI 3-kinase beta [5]. For the same molecule, the half-maximal inhibitory concentration (IC50) at PI 3-kinase delta [7] was 6510 nM; on PI 4-kinase beta, 1700 nM; at PI 3-kinase delta [8], 1400 nM; at mTOR it was 3900 nM; at PI 3-kinase gamma [9] it was 25 nM; at PI 3-kinase alpha [10] it was 650 nM. Further, in data set [11], the concentration for half-maximal inhibition (IC50) came out at 1860 nM. Besides, the “Assay M RLM CI(int)” value in [6] came to 129 µL/min/mg.

For `Cc1ncc(-c2nc(-c3cc(S(=O)(=O)NCCCO)c(F)cc3C)cnc2N)s1` [Example 113, 5-(5-Amino-6-(2-methylthiazol-5-yl)pyrazin-2-yl)-2-fluoro-N-(3-hydroxypropyl)-4-methylbenzenesulfonamide], the IC50 on Vps34 came to 470 nM; on PI 3-kinase beta [1], 3570 nM; at PI 3-kinase gamma [2] it was 24 nM; on PI 3-kinase gamma [3], 55 nM; on PI 3-kinase alpha [4], 50 nM; on PI 3-kinase beta [5] it was 440 nM. The half-inhibitory concentration (IC50) stood at 1080 nM at PI 3-kinase delta [7]; 1480 nM on PI 4-kinase beta; 320 nM on PI 3-kinase delta [8]; 3450 nM at mTOR; 8 nM at PI 3-kinase gamma [9]; 1080 nM on PI 3-kinase alpha [10]. Further, in data set [11], the concentration for half-maximal inhibition (IC50) amounted to 143 nM. The “Assay M RLM CI(int)” value in data set [6] amounted to 39 µL/min/mg.

Turning to `Cc1ccc(S(=O)(=O)NCC(C)(C)O)cc1-c1cnc(N)c(-c2cnc(C3CC3)s2)n1` [Example 21, 3-[5-Amino-6-(2-cyclopropyl-thiazol-5-yl)-pyrazin-2-yl]-N-(2-hydroxy-2-methyl-propyl)-4-methyl-benzenesulfonamide], the concentration for half-maximal inhibition (IC50) at Vps34 was 1400 nM; at PI 3-kinase beta [1], 590 nM; at PI 3-kinase gamma [2] it was 90 nM; on PI 3-kinase gamma [3], 18 nM; on PI 3-kinase alpha [4], 40 nM; on PI 3-kinase beta [5], 150 nM. Besides, the IC50 at PI 3-kinase delta [7] was 460 nM; on PI 4-kinase beta, 1500 nM; on PI 3-kinase delta [8], 80 nM; at mTOR, 690 nM; at PI 3-kinase gamma [9], 6 nM; on PI 3-kinase alpha [10], 510 nM. Besides, in data set [11], the IC50 was found to be 244 nM. For the same molecule, the “Assay M RLM CI(int)” value in data set [6] amounted to 109 µL/min/mg.

For the molecule `CCONS(=O)(=O)c1ccc(C)c(-c2cnc(N)c(-n3cncn3)n2)c1` [Example 112, 3-(5-Amino-6-(1H-1,2,4-triazol-1-yl)pyrazin-2-yl)-N-ethoxy-4-methylbenzenesulfonamide], the half-maximal inhibitory concentration (IC50) on Vps34 is over 10000 nM; on PI 3-kinase beta [1], 1140 nM; at PI 3-kinase gamma [2], 172 nM; at PI 3-kinase gamma [3] it was 95 nM; on PI 3-kinase alpha [4], 860 nM; at PI 3-kinase beta [5], 3300 nM. The half-inhibitory concentration (IC50) on PI 3-kinase delta [7] was 310 nM; at PI 4-kinase beta, 3150 nM; on PI 3-kinase delta [8], 500 nM; on mTOR it was 6300 nM; on PI 3-kinase gamma [9], 19 nM; at PI 3-kinase alpha [10], 790 nM. Further, in data set [11], the 50% inhibitory concentration (IC50) was determined as 586 nM. The “Assay M RLM CI(int)” value in data set [6] amounted to 62 µL/min/mg.

For `Cc1ccc(S(=O)(=O)N[C@H]2CC[C@H](O)CC2)cc1-c1cnc(N)c(-c2cccnc2)n1` [Example 22, Trans-3-(5-Amino-6-pyridin-3-yl-pyrazin-2-yl)-N-(4-hydroxy-cyclohexyl)-4-methyl benzenesulfonamide], the IC50 is over 9100 nM on Vps34; over 10000 nM at PI 3-kinase beta [1]; 100 nM on PI 3-kinase gamma [2]; 164 nM on PI 3-kinase gamma [3]; 760 nM at PI 3-kinase alpha [4]; 5710 nM on PI 3-kinase beta [5]. The half-maximal inhibitory concentration (IC50) was determined as 4690 nM at PI 3-kinase delta [7]; 7080 nM on PI 4-kinase beta; 420 nM at PI 3-kinase delta [8]; 8020 nM on mTOR; 44 nM at PI 3-kinase gamma [9]; 6670 nM on PI 3-kinase alpha [10]. Also, in data set [11], the half-maximal inhibitory concentration (IC50) stood at 256 nM. In data set [6], the “Assay M RLM CI(int)” value came to 47 µL/min/mg.

As to `Cc1ccc(S(=O)(=O)NCC2(O)CCCC2)cc1-c1cnc(N)c(-n2cncn2)n1` [Example 127.35], the half-inhibitory concentration (IC50) was over 10000 nM at Vps34; 2050 nM on PI 3-kinase beta [1]; 391 nM at PI 3-kinase gamma [2]; 85 nM at PI 3-kinase gamma [3]; 330 nM at PI 3-kinase alpha [4]; 1100 nM on PI 3-kinase beta [5]. For the same molecule, the half-inhibitory concentration (IC50) is over 10000 nM at PI 3-kinase delta [7]; 6300 nM on PI 4-kinase beta; 810 nM at PI 3-kinase delta [8]; 7100 nM on mTOR; 50 nM on PI 3-kinase gamma [9]; over 10000 nM on PI 3-kinase alpha [10]. The IC50 in data set [11] worked out at 847 nM. In addition, in [6], the “Assay M RLM CI(int)” value is 202 µL/min/mg.
